Test results reported in ChEMBL document CHEMBL5143742, “Discovery and Characterization of a Novel Series of Chloropyrimidines as Covalent Inhibitors of the Kinase MSK1” (ACS Med Chem Lett, 2022).

Assays:
[1] = Lipophilicity, log D of the compound; assay type: physicochemical; conditions: octanol/water
[2] = Intrinsic clearance in human liver microsomes assessed per mg protein; assay type: ADME, Microsome
[3] = Intrinsic clearance in mouse liver microsomes assessed per mg protein; assay type: ADME, Microsome

**Q.** For `Clc1ncc(Cl)c(-n2ccc3ncccc32)n1`, which logD [1] is on record?
**A.** 2.3

**Q.** And the CLH [2]?
**A.** 11.7 µL/min

**Q.** And the CLH [3]?
**A.** 131 µL/min
